From publication PMC8318231, “Rate-of-Kill (RoK) assays to triage large compound sets for Chagas disease drug discovery: Application to GSK Chagas Box” (PLoS Neglected Tropical Diseases, 2021)

Experiments:
[1] = system: TcCYP51; details: formerly reported; cited from earlier work
[2] = system: T. cruzi Tulahuen trypomastigotes; experiment: T. cruzi trypomastigote assay (Cell Titer-Glo viability, ATP luminescence); type: cell-based, Trypanosoma cruzi; details: for Trypomastigotes pIC50 48 hours: 48 hours incubation; for Trypomastigotes pIC50 48 hours / Trypomastigotes pIC50 72 hours: pIC50 = -log10 IC50 in molar units; for Trypomastigotes pIC50 72 hours: 72 hours incubation; for 72 pIC50 (trypomastigotes, raw data of Fig 1D): 72 hours, plotted values, censored values given without sign; for 48 pIC50 / 72 pIC50: trypomastigote assay; for 48 pIC50: 48 h; for 72 pIC50: 72 h
Outline: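 Compounds were tested in dose response or once at a final 5 μM against 5 × 10^4 trypomastigotes per well (DMEM, 2% FBS), collected on days 5–8 from LLC-MK2 infected cultures. ATP luminescence via CellTiter-Glo reports live parasites; DMSO defines 0% and cell-free wells 100% effect.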

[3] = system: T. cruzi intracellular amastigotes in H9c2 cells; experiment: Rate-of-Kill (RoK) high-content imaging assay, amastigotes per cell (AM/CELL) and curve descriptors; type: cell-based, Trypanosoma cruzi; set-up: key to ME_24h / ME_48h / ME_72h: % reduction in parasite burden (cidal response); t50pct_MCC50 / t50pct_Cmax: unit not given here; details: for ME_24h: 24h; for ME_48h: 48h; for ME_72h: 72h; for AM/CELL NORM: sheet figure 4 A; for ME_24h (%): maximum effect at 24 h; for ME_24h (%) / ME_48h (%) / ME_72h (%): RoK assay; for ME_48h (%): maximum effect at 48 h; for ME_72h (%): maximum effect at 72 h; for ME 24h (maximum effect at 24 hours, intracellular amastigotes): maximum percentage of parasite burden reduction reached by any concentration
Outline: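 Readouts at each time point are amastigotes per cell and host nuclei count (cytotoxicity), from DRAQ5 high-content imaging. Infection: trypomastigotes on H9c2 at MOI 8 for 18 h. Dosing was 5 μM single point or 11 points, 1/3 steps from 50 μM. Effect scaled between 4 h infected and uninfected controls.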

Row | SMILES | CYP51 pIC50 [1] | Trypomastigotes pIC50 48 hours [2] | Trypomastigotes pIC50 72 hours [2] | ME_24h ([3]; figure 5) | ME_48h ([3]; figure 5) | ME_72h ([3]; figure 5) | MCCE ([3]; RoK curve descriptor) [µM] | AM/CELL NORM ([3]; Time 4) | AM/CELL NORM ([3]; Time 24) | AM/CELL NORM ([3]; Time 48) | AM/CELL NORM ([3]; Time 72) | tlag_Cmax ([3]; at Cmax) [h] | t50pct_Cmax ([3]; at Cmax, figure 5) | tlag_Cmax ([3]; at Cmax, figure 5) | t50pct_MCC50 ([3]; at MCC50, figure 5) | tlag_MCC50 ([3]; at MCC50, figure 5) | MCCE ([3]; figure 5) | ME_24h (%) [3] [%] | ME_48h (%) [3] [%] | ME_72h (%) [3] [%] | further results
1 | Cc1c(C(C)NC(=O)Nc2cccc(Cl)c2)sc2ncnn12 (centres unmarked) [TCMDC-143405] | 6.9 | < 4.3 | < 4.3 | -289.196 | -32.4517 | 41.1216 | 0.07 | -4.394 | -289.196 | -32.4517 | -0.1706 | 24.0 | 72 | 24 | 72 | 72 | 0.06859 | -289.2 | -32.5 | 41.1 | 72 pIC50 (trypomastigotes, raw data of Fig 1D) [2]: < 4.3; 48 pIC50 ([2]; figure 1A): < 4.3; 72 pIC50 ([2]; figure 1A): < 4.3; 72 pIC50 ([2]; figure 1B): < 4.3; MCC50 ([3]; figure 5): 50 µM; ME 24h (maximum effect at 24 hours, intracellular amastigotes) [3]: -289.196%
2 | O=C(c1cccc(Cl)c1Cl)N1CCn2c1nc(-c1ccncc1)cc2=O [TCMDC-143409] | 7.2 | < 4.3 | < 4.3 | -46.4941 | -253.426 | 11.7221 | 0.6 | 24.5196 | -46.4941 | -266.503 | -474.938 | 72.0 | 72 | 72 | 72 | 72 | 0.6173 | -46.5 | -253.4 | 11.7 | 72 pIC50 (trypomastigotes, raw data of Fig 1D) [2]: < 4.3; 48 pIC50 ([2]; figure 1A): < 4.3; 72 pIC50 ([2]; figure 1A): < 4.3; 72 pIC50 ([2]; figure 1B): < 4.3; MCC50 ([3]; figure 5): 50 µM; ME 24h (maximum effect at 24 hours, intracellular amastigotes) [3]: -46.4941%
3 | CS(=O)(=O)c1cccc(-c2cnc(N)c3c(-c4ccc(CO)cc4)csc23)c1.O=C(O)C(F)(F)F [TCMDC-143410] | 5.5 | 4.5 | 4.4 | 16.9023 | 39.285 | 41.8133 | 1.2 | 25.2958 | 6.562 | -1.837 | 13.104 | 36.0 | 72 | 36 | 72 | 38 | 1.235 | 16.9 | 39.3 | 41.8 | MCC50 ([3]; RoK curve descriptor): 1.9 µM; t50%_MCC50 ([3]; at MCC50): 72.0 h; tlag_MCC50 ([3]; at MCC50): 4.0 h; MCC50 ([3]; figure 5, in µM): 25.9259; ME 24h (maximum effect at 24 hours, intracellular amastigotes) [3]: 40.1676%
4 | O=C(NCCc1ccccn1)C(c1cn[nH]c1)N1CCN(c2ccc(Cl)c(Cl)c2)CC1 (centres unmarked) [TCMDC-143411] | 6.9 | < 4.3 | < 4.3 | -24.7459 | 74.9666 | 99.2836 | 0.2 | 6.745 | -24.7459 | 74.9666 | 99.2836 | 24.0 | 48 | 24 | 72 | 24 | 0.2058 | -24.8 | 75.0 | 99.3 | 72 pIC50 (trypomastigotes, raw data of Fig 1D) [2]: < 4.3; 48 pIC50 ([2]; figure 1A): < 4.3; 72 pIC50 ([2]; figure 1A): < 4.3; 72 pIC50 ([2]; figure 1B): < 4.3; MCC50 ([3]; RoK curve descriptor): 16.7 µM; t50%_Cmax ([3]; at Cmax): 48.0 h; t50%_MCC50 ([3]; at MCC50): 72.0 h; tlag_MCC50 ([3]; at MCC50): 24.0 h; MCC50 ([3]; figure 5, in µM): 16.6667; ME 24h (maximum effect at 24 hours, intracellular amastigotes) [3]: -24.7459%
